What was measured:
Type in all cases: in vivo, human
[1] = system: patients with ADSL deficiency; test: Urinary assay of SAICAr and S-Adenosine by HPLC-MS/MS in patients treated with allopurinol; settings: for urinary SAICAr: three children, allopurinol 200 mg/d
Procedure: (§1) SAICAr and S-Ado metabolites in urine were assayed using HPLC-DAD and HPLC coupled with tandem mass spectrometry (HPLC-MS/MS) according to the techniques recently described (Ceballos-Picot et al. 2015; Zikanova et al. 2014).
The patients received allopurinol daily by the oral route (200 mg/d).

[2] = system: patients with ADSL deficiency; test: Urinary assay of SAICAr and S-Ado by HPLC with UV detection (HPLC-DAD); settings: 3 patients, after 6 and 12 months of treatment with allopurinol
Procedure: as §1

[3] = system: patients with ADSL deficiency; test: Vineland scale (adaptive skills) during allopurinol treatment; set-up: Vineland standardized score, Communication / Vineland standardized score, Daily life / Vineland standardized score, Social skills / Vineland standardized score, Motor skills / Vineland standardized score, TOTAL: scale not given here
Procedure: (§2) Clinical characterization of the patients was carried out before starting treatment (T1) in accordance with the ICD 10 classification, using standardized tools: • A semi-structured interview by means of the Autism Diagnostic Interview (ADI-R): this is a semi-structured interview intended to classify symptoms reported by parents in the domain of communication, social interaction, restricted and stereotyped behaviours or sensory issues. Scores are established for the current period and, if necessary, for the period when the difficulties were most serious, between the ages of 4 and 5 years. A score is established for each of the three domains based on responses provided by the parents and the judgement of the interviewer. Scores above the thresholds in the 3 domains support a diagnosis of autism, and in one or two domains support a diagnosis of a pervasive developmental disorder. Scores below the thresholds in the 3 domains make it possible to rule out diagnosis of an autism spectrum disorder if the ADI-R results converge with the clinical assessment of the child. • A semi-structured interview using the Vineland 2 scale: this is a semi-structured interview which makes it possible to assess the adaptive skills of the child in the domains of communication, daily life, social skills and motor skills. From the description of their child's daily living skills, equivalent developmental ages and standardized scores are calculated, making it possible to describe the developmental and adaptive profile of the child. • A developmental assessment using the Psychoeducational Profile (PEP 3): this is a direct assessment of the skills of the child in several domains of their development, particularly suited to children who display a developmental disability. Six domains of development are assessed: verbal and preverbal cognition (VPC), expressive language (EL), receptive language (RL), gross motor skills (GM), fine motor skills (FM) and visual-motor imitation (VMI). The results are expressed in terms of equivalent developmental age and emerging score, when the exercises are partially completed. The number of emerging skills, or the difference between the actual ages and the emerging scores, are evidence of the development potential of the children. • The Conners scale: this is an assessment scale intended to quantify the symptoms of inattentiveness, agitation, impulsiveness, anxiety, somatization, behavioural difficulties and learning difficulties. There are several versions of the questionnaire, one for parents, the other for teachers or professionals. The scoring makes it possible to obtain an overall standardized score, considered to be significant when it is greater than 1.5.
(§3) Clinical re-assessments were carried out 6 months and one year after treatment with allopurinol and compared to the first assessment in the absence of treatment with allopurinol. They comprised: • At 6 months: scoring of the Vineland and Conners scales • At 12 months: scoring of the Vineland and Conners scales and completion of PEP-3.
(§4) Clinical progress at 200 mg of allopurinol was measured for each child based on the Conner and Vineland scale scores before treatment (T1), at 6 months (T2) and at 12 months of treatment (T3) with regard to behaviour and function.

[4] = system: patients with ADSL deficiency; test: Conners scale (parents and teachers) during allopurinol treatment
Procedure: as §2, §3, §4

[5] = patient P1, T2 (6 months) vs T1
[6] = patient P1, T3 (12 months) vs T1
[7] = patient P2, T2 (6 months) vs T1
[8] = patient P2, T3 (12 months) vs T1
[9] = patient P3, T2 (6 months) vs T1
[10] = patient P3, T3 (12 months) vs T1
[11] = Patient 1, T2 (6 months), T1 69
[12] = Patient 1, T3 (12 months), T1 69

Compound: O=c1ncnc2[nH][nH]cc1-2 [allopurinol, 1,2-dihydro-4H-pyrazolo[3,4-d]pyrimidin-4-one]
- SAICAr, urine ([1]; patient P1, 6 months (T2) of allopurinol 200 mg/d oral, T1 37.7): 32.9 μmol/mmol creat
- S-Adenosine, urine ([1]; patient P1, 6 months (T2) of allopurinol 200 mg/d oral, before treatment (T1) 55.4): 51.6 μmol/mmol creat
- SAICAr, urine ([1]; patient P1, 12 months (T3) of allopurinol 200 mg/d oral, T1 37.7): 19.4 μmol/mmol creat
- S-Adenosine, urine ([1]; patient P1, 12 months (T3) of allopurinol 200 mg/d oral, T1 55.4): 36.4 μmol/mmol creat
- % variation S-Adenosine [1, 5]: −6.9%
- % variation SAICAr [1, 5]: −12.7%
- S-Ado/SAICAr ratio, urine ([1]; patient P1, T2 (6 months), T1 1.47): 1.57
- % variation S-Adenosine [1, 6]: −34.3%
- % variation SAICAr [1, 6]: −48.6%
- S-Ado/SAICAr ratio, urine ([1]; patient P1, T3 (12 months), T1 1.47): 1.88
- SAICAr, urine ([1]; patient P2, 6 months (T2) of allopurinol 200 mg/d oral, T1 95.4): 57.9 μmol/mmol creat
- S-Adenosine, urine ([1]; patient P2, 6 months (T2) of allopurinol 200 mg/d oral, T1 116.3): 79.3 μmol/mmol creat
- SAICAr, urine ([1]; patient P2, 12 months (T3) of allopurinol 200 mg/d oral, T1 95.4): 46.8 μmol/mmol creat
- S-Adenosine, urine ([1]; patient P2, 12 months (T3) of allopurinol 200 mg/d oral, T1 116.3): 63.7 μmol/mmol creat
- % variation S-Adenosine [1, 7]: −31.8%
- % variation SAICAr [1, 7]: −39.3%
- S-Ado/SAICAr ratio, urine ([1]; patient P2, T2 (6 months), T1 1.22): 1.37
- % variation S-Adenosine [1, 8]: −45.2%
- % variation SAICAr [1, 8]: −51.0%
- S-Ado/SAICAr ratio, urine ([1]; patient P2, T3 (12 months), T1 1.22): 1.36
- S-Adenosine, urine ([1]; patient P3, 6 months (T2) of allopurinol 200 mg/d oral, T1 148.6): 113.3 μmol/mmol creat
- SAICAr, urine ([1]; patient P3, 6 months (T2) of allopurinol 200 mg/d oral, T1 167.9): 96.3 μmol/mmol creat
- S-Adenosine, urine ([1]; patient P3, 12 months (T3) of allopurinol 200 mg/d oral, T1 148.6): 98.2 μmol/mmol creat
- SAICAr, urine ([1]; patient P3, 12 months (T3) of allopurinol 200 mg/d oral, T1 167.9): 72.9 μmol/mmol creat
- % variation S-Adenosine [1, 9]: −23.8%
- % variation SAICAr [1, 9]: −42.7%
- S-Ado/SAICAr ratio, urine ([1]; patient P3, T2 (6 months), T1 0.89): 1.18
- % variation S-Adenosine [1, 10]: −33.9%
- % variation SAICAr [1, 10]: −56.6%
- S-Ado/SAICAr ratio, urine ([1]; patient P3, T3 (12 months), T1 0.89): 1.35
- urinary SAICAr ([1]; after 6 and 12 months of treatment): significant reduction
- urinary SAICAr ([1]; after 6 months): significant reduction
- SAICAr and S-Ado in urine (HPLC-DAD) [2]: significant reduction
- standardized scores on the Vineland scale in all domains ([3]; 3 patients, during treatment, more pronounced for communication): improvement
- Vineland standardized score, Communication ([3]; Patient 1, T2 (6 months), T1 67): 65
- Vineland standardized score, Daily life [3, 11]: 71
- Vineland standardized score, TOTAL [3, 11]: 76
- Vineland standardized score, Social skills ([3]; Patient 1, T2 (6 months), T1 73): 66
- Vineland standardized score, Communication ([3]; Patient 1, T3 (12 months), T1 67): 75
- Vineland standardized score, Daily life [3, 12]: 74
- Vineland standardized score, TOTAL [3, 12]: 74
- Vineland standardized score, Social skills ([3]; Patient 1, T3 (12 months), T1 73): 75
- Vineland standardized score, Communication ([3]; Patient 2, T2 (6 months), T1 57): 72
- Vineland standardized score, Motor skills ([3]; Patient 2, T2 (6 months), T1 61): 67
- Vineland standardized score, TOTAL ([3]; Patient 2, T2 (6 months), T1 69): 79
- Vineland standardized score, Social skills ([3]; Patient 2, T2 (6 months), T1 79): 83
- Vineland standardized score, Daily life ([3]; Patient 2, T2 (6 months), T1 81): 87
- Vineland standardized score, Communication ([3]; Patient 2, T3 (12 months), T1 57): 75
- Vineland standardized score, Motor skills ([3]; Patient 2, T3 (12 months), T1 61): 85
- Vineland standardized score, TOTAL ([3]; Patient 2, T3 (12 months), T1 69): 82
- Vineland standardized score, Social skills ([3]; Patient 2, T3 (12 months), T1 79): 83
- Vineland standardized score, Daily life ([3]; Patient 2, T3 (12 months), T1 81): 87
- Vineland standardized score, Communication ([3]; Patient 3, T2 (6 months), T1 65): 69
- Vineland standardized score, Motor skills ([3]; Patient 3, T2 (6 months), T1 67): 70
- Vineland standardized score, TOTAL ([3]; Patient 3, T2 (6 months), T1 71): 77
- Vineland standardized score, Daily life ([3]; Patient 3, T2 (6 months), T1 75): 87
- Vineland standardized score, Social skills ([3]; Patient 3, T2 (6 months), T1 76): 83
- Vineland standardized score, Communication ([3]; Patient 3, T3 (12 months), T1 65): 74
- Vineland standardized score, Motor skills ([3]; Patient 3, T3 (12 months), T1 67): 72
- Vineland standardized score, TOTAL ([3]; Patient 3, T3 (12 months), T1 71): 80
- Vineland standardized score, Daily life ([3]; Patient 3, T3 (12 months), T1 75): 87
- Vineland standardized score, Social skills ([3]; Patient 3, T3 (12 months), T1 76): 88
- overall clinical outcome ([4]; 3 patients during treatment with allopurinol, more significant in the youngest patient (P3)): clinical improvement
- Conners v-score, scale completed by the parents ([4]; 3 patients, T1, T2, T3): reduction in the v-score
- scores on the Conners scale (parents and teachers) ([4]; 3 patients, during treatment): reduction
- Conners score, Teachers ([4]; Patient 1, T2 (6 months), T1 2.2, significant when >1.5): 1.5
- Conners score, Parents ([4]; Patient 1, T2 (6 months), T1 2.3): 1.6
- Conners score, Teachers ([4]; Patient 1, T3 (12 months), T1 2.2): 1
- Conners score, Parents ([4]; Patient 1, T3 (12 months), T1 2.3): 1.8
- Conners score, Parents ([4]; Patient 2, T2 (6 months), T1 1): 0.8
- Conners score, Teachers ([4]; Patient 2, T2 (6 months), T1 2): 1.5
- Conners score, Parents ([4]; Patient 2, T3 (12 months), T1 1): 0.5
- Conners score, Teachers ([4]; Patient 2, T3 (12 months), T1 2): 1.4
- Conners score, Parents ([4]; Patient 3, T2 (6 months), T1 1.7): 1.2
- Conners score, Teachers ([4]; Patient 3, T2 (6 months), T1 1.9): 1.8
- Conners score, Parents ([4]; Patient 3, T3 (12 months), T1 1.7): 1
- Conners score, Teachers ([4]; Patient 3, T3 (12 months), T1 1.9): 1
- hyperactivity reported by the parents and teachers ([4]; three children, allopurinol 200 mg/d): reduction in hyperactivity
- behavioural disorders ([4]; three children, allopurinol 200 mg/d, after 6 and 12 months): substantial improvement
- behavioural disorders assessed using the Conners and Vineland scales ([4]; three children, allopurinol 200 mg/d, after 6 months): substantial improvement
